For assay [1], the target named is T1, Heat shock factor protein 1 (Mus musculus, UniProt P38532).
T1 sequence (P38532 whole entry): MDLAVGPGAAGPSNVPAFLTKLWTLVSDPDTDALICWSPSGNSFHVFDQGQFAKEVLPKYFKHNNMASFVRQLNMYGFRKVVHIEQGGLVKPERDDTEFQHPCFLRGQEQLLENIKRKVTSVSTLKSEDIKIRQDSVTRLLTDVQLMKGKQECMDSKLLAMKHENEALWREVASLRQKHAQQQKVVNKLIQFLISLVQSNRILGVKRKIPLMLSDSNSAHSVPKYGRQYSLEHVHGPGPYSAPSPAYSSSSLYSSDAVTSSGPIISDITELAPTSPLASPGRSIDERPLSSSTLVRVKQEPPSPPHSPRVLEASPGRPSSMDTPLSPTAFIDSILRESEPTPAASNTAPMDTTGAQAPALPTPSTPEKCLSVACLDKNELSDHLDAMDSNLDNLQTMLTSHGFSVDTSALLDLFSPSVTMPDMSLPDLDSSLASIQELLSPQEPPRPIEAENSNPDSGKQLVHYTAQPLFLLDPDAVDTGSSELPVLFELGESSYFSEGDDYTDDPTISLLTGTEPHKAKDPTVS
Briefly: enhancement of HSF1-driven luciferase signal – cell-based, NIH3T3, luminescence, dose retest, confirmation (AID 435004).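 Also: stress induced by proteasome inhibitor MG132 added 30 min after compound; luciferase reporter driven by HSF1 response element in NIH3T3 cells; actives raise luminescence as potentiators of the MG132 stress response.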 Type of assay: functional.

For assay [2], the target named is Mitogen-activated protein kinase 10 (Homo sapiens, UniProt P53779). Nature of the assay: Dose response biochemical screening assay for inhibitors of c-Jun N-Terminal Kinase 3 (JNK3). [Related pubchem assays: 746 ].
Another assay concerns the target Major prion protein (Homo sapiens, UniProt P04156). Format: functional, cell-based.
A short description of assay [3]: Counterscreen for antagonists of the human trace amine associated receptor 1 (hTAAR1): Fluorescence-based cell-based high throughput dose response assay to identify nonselective Ga16 antagonists. Format: functional. (In general: Counterscreens check selectivity or assay interference.)
Assay [4] addresses T2, Trace amine-associated receptor 1 (Homo sapiens, UniProt Q96RJ0).
T2 sequence (Q96RJ0 whole entry): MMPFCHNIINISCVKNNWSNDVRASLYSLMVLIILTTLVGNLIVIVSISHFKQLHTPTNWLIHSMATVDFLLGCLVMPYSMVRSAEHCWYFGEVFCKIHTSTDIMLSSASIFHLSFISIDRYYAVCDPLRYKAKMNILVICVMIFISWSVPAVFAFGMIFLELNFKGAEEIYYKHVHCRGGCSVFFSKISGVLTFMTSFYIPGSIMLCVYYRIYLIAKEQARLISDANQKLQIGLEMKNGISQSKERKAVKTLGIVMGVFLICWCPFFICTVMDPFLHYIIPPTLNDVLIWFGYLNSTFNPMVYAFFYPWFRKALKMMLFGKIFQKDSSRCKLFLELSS
Nature of the assay: Fluorescence-based cell-based high throughput dose response assay to identify antagonists of the human trace amine associated receptor 1 (TAAR1). Type of assay: functional.

A further assay has as its system H9c2. Nature of the assay: cells. Particulars: Rattus norvegicus, H9c2, Myocardium. Format: functional, cell-based.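 Also: confirmatory concentration-response retest of ultra-high-throughput screening hits for modulation of myocardial damage; cell death induced by hydrogen peroxide oxidative stress; compound pretreatment for 60 min then peroxide exposure for 2 h; potency is for protecting the cells against peroxide damage rather than for killing them.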
The test system of a further assay is Streptococcus. Briefly: GAS UMAA2166 growth inhibition – luminescence, BacTiterGlo, counter-screen for streptokinase expression inhibitor project, dose response (AID 1915).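 Also: potency for reduction of bacterial viability or growth.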 Format: functional, organism-based.
The nature of assay [5]: Counterscreen for […] of the human trace amine associated receptor 1 (TAAR1): Fluorescence-based cell-based high throughput dose response assay to identify nonselective Ga16 agonists. Type of assay: functional.
For assay [6], the system named is Streptococcus sp. 'group A'. Nature of the assay: Streptococcus pyogenes SK(-)GAS viability under kanamycin – luminescence, BacTiterGlo, confirmation, counter-screen for streptokinase expression inhibitor project, dose response (AID 1900). Format: functional, organism-based.
Assay [7] has as its target T2, Trace amine-associated receptor 1. Nature of the assay: Counterscreen for antagonists of the human trace amine associated receptor 1 (hTAAR1): Fluorescence-based cell-based high throughput dose response assay to identify TAAR1 Agonists. Type of assay: functional.
The target of another assay is T3, Streptokinase A (Streptococcus pyogenes serotype M1, UniProt P10520).
T3 sequence (P10520 whole entry): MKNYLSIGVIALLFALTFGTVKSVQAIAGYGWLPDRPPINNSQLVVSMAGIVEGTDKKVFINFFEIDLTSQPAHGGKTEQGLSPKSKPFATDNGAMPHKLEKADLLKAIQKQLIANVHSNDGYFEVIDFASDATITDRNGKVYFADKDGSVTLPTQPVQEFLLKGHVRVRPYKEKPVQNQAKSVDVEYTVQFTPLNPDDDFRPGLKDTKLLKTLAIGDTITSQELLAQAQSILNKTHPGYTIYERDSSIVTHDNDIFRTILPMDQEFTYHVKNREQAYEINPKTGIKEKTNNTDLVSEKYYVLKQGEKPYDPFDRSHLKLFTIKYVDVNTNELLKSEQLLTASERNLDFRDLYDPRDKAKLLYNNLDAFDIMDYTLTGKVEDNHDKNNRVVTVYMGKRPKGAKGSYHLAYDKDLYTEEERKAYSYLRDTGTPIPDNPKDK
Nature of the assay: viability-normalized secreted streptokinase activity reduction – plasminogen activation absorbance, OD405, dose response (AID 1914).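 Also: secreted streptokinase activity via plasminogen activation per viability signal from cell pellet.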 Type of assay: functional, Streptococcus pyogenes M1 GAS.

In assay [8] the target is T4, Scavenger receptor class B member 1 (Mus musculus, UniProt Q61009). Nature of the assay: blockers of DiI-HDL lipid transfer via SR-BI – cell-based, ldlA[mSR-BI] CHO, DiI fluorescence, dry powder, set 10, dose response (AID 624029). Format: functional.
The target of assay [9] is T4, Scavenger receptor class B member 1. Nature of the assay: mouse SR-BI DiI-HDL transfer blockers – ldlA[mSR-BI] CHO cells, fluorescence plate reader, dry powder, set 9, dose response (AID 623880). Format: functional, cell-based.
Assay [10] can be described thus: Luminescence-based cell-based high throughput dose response assay to identify activators of the DAF-12 from the parasite S. stercoralis (ssDAF-12). Type of assay: functional.
For assay [11], the target named is T5, Beta-2 adrenergic receptor (Homo sapiens, UniProt P07550). Nature of the assay: Dose response for HTS for Beta-2AR agonists via FAP method from Powderset3. Type of assay: functional.
Assay [12] deals with T5, Beta-2 adrenergic receptor. Nature of the assay: ADRB2 activation measured by internalization – cell-based, FAP fluorogen, flow cytometry, cherry pick 1, dose response (AID 588763). Format: functional.
Assay [13] has as its target SWI/SNF-related matrix-associated actin-dependent regulator of chromatin subfamily A member 2 (Homo sapiens, UniProt P51531). Briefly: Luminescence-based cell-based high throughput dose response assay to identify activators of the function of SWI/SNF related, matrix associated, actin dependent regulator of chromatin, subfamily a, member 2 (SMARCA2, BRM). Type of assay: functional.

Assay [14] can be described thus: Counterscreen for activators of the function of SWI/SNF related, matrix associated, actin dependent regulator of chromatin, subfamily a, member 2 (SMARCA2, BRM): Luminescence-based cell-based high throughput dose response assay to identify non-selective compounds using the VP16 reporter assay. Format: functional.
The target of assay [15] is T6, High affinity choline transporter 1 (Homo sapiens, UniProt Q9GZV3).
T6 sequence (Q9GZV3 whole entry): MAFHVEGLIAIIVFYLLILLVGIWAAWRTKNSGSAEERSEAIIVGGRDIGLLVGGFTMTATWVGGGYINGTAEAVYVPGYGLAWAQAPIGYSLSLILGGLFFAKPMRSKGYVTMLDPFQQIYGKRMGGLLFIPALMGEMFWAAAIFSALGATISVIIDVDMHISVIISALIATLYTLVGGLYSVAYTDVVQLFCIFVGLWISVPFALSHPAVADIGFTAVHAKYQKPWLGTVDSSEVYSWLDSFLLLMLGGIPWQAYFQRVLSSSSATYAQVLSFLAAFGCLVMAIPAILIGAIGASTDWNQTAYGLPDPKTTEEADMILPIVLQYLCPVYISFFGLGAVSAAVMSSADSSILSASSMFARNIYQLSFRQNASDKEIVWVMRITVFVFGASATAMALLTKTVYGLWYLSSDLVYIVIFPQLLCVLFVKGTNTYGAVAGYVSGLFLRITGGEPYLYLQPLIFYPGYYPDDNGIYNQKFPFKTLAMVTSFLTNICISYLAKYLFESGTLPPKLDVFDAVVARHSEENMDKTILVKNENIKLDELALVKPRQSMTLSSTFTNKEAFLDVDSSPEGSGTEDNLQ
Briefly: choline transporter CHT inhibition potency – cell-based, 3H-choline uptake, radioactive, HEK293 CHT LV-AA, orthogonal assay for CHT inhibitor project, dose response (AID 651756). Format: functional.

A short description of assay [16]: cytotoxicity in HEK293 background cells – cell-based, dry powder, set 2, counter-screen for EBV LMP1 inhibitor project, dose response (AID 624374). Format: functional.

Calls of active or inactive are those of the source.

For `CCCc1nc(SCC(=O)Nc2cc(C)on2)c2ccccc2n1`, the EC50 in assay [1] was 31.6 µM (active). For the same compound, the figures for the IC50 (in the assay “cells”; in [2]; on Major prion protein) were > 138 µM (inactive), 83.5 µM (not active) and 1.01 µM (active), respectively.

As to `COc1cccc(-c2nn(-c3ccccc3)cc2C(=O)Nc2nccs2)c1`, the IC50 in assay [3] is > 29.9 µM (inactive); in assay [4], 4.72 µM (active); in the assay with H9c2 it was 7.3 µM (active). In addition, the concentration giving a half-maximal response (EC50) in the assay with Streptococcus was > 150 µM (not active); in assay [5], > 29.9 µM (inactive); in assay [6], 14.9 µM (active); in assay [7], > 29.9 µM (inactive); on Streptokinase A, 35.9 µM (active).

On to `CC(C)CN(C(=O)COC(=O)C12CC3CC(CC(O)(C3)C1)C2)C1CCS(=O)(=O)C1` (stereo unspecified), for which the AC50 in [8] is 252 nM (active); in assay [9], 209 nM (active).

With `COc1ccc(S(=O)(=O)Cc2ccc(C(=O)NCCCN3CCc4ccccc4C3)o2)cc1`, the IC50 in [10] was > 67.5 µM (inactive).

`COc1ccc(OC)c(CCNC(=O)C2CCN(c3nnc(-n4cccc4)s3)CC2)c1`: the half-maximal effective concentration (EC50) is 1.51 µM (active) in [11] and 2.85 µM (active) in assay [12].

As for `N#Cc1c(NCCN)nc(-c2ccco2)c2c1CCCC2`, the EC50 in assay [13] was 10.8 µM (inactive); in assay [14] it was > 91.2 µM (inactive).

For `O=C(Nc1ccc(S(=O)(=O)Nc2ccccn2)cc1)c1ccc([N+](=O)[O-])cc1Cl`, the IC50 in assay [15] is 3.85 µM (active).

For `COc1ccccc1C(=O)Nc1ccc2c(c1)C(=O)N(C)[C@@H]1CC[C@H](CC(=O)NCCc3ccncc3)O[C@H]1CO2`, in assay [16], the AbsAC35 came to 153.61 µM.

A word on the EC50: it is the concentration needed to bring the measured effect to its halfway point. Broadly, the IC50 is the concentration that inhibits the measured activity by half. As usually defined, the AC50 is the concentration at which the activity in the assay is half-maximal.

These data come from ChEMBL document CHEMBL1201862, “PubChem BioAssay data set” (2004).
